Data as given in US20090246481A1, “DISPERSION OF WATER-INSOLUBLE COLORANT, METHOD OF PRODUCING SUBSTANCE CONTAINING WATER-INSOLUBLE COLORANT, FINE PARTICLES OF WATER-INSOLUBLE COLORANT, DISPERSING AGENT FOR WATER-INSOLUBLE COLORANT, AND RECORDING LIQUID, INK SET, PRINTED ARTICLE, METHOD OF FORMING IMAGE AND IMAGE FORMING APPARATUS …” (FUJIFILM Corporation, priority 2008, published 2009).

Experiment: pKa of monomers by neutralization titration
Assay type: physicochemical
Conditions: tetrahydrofuran/water=6:4
Description: The pKa value of each monomer was calculated in accordance with a neutralization titration method in a system of tetrahydrofuran/water=6:4 by means of an automatic titrator COM-2500 (trade name) manufactured by Hiranuma Sangyo Co., Ltd.

| Compound | pKa |
| --- | --- |
| C=C(C)C(=O)O [Methacrylic acid] | 3.98 |
| C=C(C)C(=O)NS(C)(=O)=O [Monomer 1] | 3.96 |
